# Molecular target: T1, Serpin H1 (Homo sapiens, UniProt P50454)
# T1 sequence (P50454 whole entry): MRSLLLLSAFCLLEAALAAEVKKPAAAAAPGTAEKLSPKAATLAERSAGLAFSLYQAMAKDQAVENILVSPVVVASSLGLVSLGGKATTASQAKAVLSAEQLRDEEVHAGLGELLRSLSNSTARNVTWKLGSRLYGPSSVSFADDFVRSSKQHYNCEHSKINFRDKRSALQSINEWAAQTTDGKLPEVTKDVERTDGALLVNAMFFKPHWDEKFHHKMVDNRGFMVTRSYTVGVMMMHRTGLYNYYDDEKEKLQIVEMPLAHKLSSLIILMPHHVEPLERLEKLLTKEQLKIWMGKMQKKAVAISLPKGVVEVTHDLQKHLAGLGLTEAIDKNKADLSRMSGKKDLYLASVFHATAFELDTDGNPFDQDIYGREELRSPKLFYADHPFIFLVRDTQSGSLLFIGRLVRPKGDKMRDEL
# Experiment: Inhibitory concentration against Hsp47 collagen chaperone in turbidity assay
row,IC50 [µM],SMILES
1,26.6,COc1ccc(C(C[N+](=O)[O-])Sc2ccc(N)cc2)cc1 (centres undefined)
2,6.3,Cc1cc(C(=O)CSc2nc(O)c(C#N)c(-c3cccs3)n2)ccc1Cl
3,3.1,COC(=O)c1cc(Cl)cc2c1N[S+]([O-])S2 (centres undefined)
4,26.6,Nc1ccc(SC(C[N+](=O)[O-])c2ccc(F)cc2)cc1 (centres undefined)

# Reference: ChEMBL document CHEMBL1142712, “Identification of small molecule chemical inhibitors of the collagen-specific chaperone Hsp47” (J Med Chem, 2005)
